Assays:
[1] = Solubility in aqueous media; type: physicochemical
[2] = test system: rat ventral mesencephalan neurons; assay: [3H]Dopamine cell culture assay (6-OHDA neurotoxicity); type: cell-based; conditions: 6-OHDA 30 μM, uptake 22 hours later
Experimental: Cultures of dopaminergic neurons were prepared according to a modification of the procedure described by Raymon and Leslie (J. Neurochem. 62:1015-1024, 1994). Time-mated pregnant rats were sacrificed on embyronic day 14-15 (crown rump length 11-12 mm) and the embryos removed by cesarean section. The ventral mesencephalon, containing the dopaminergic neurons, was dissected from each embryo. Tissue pieces from approximately 48 embryos were pooled and dissociated both enzymatically and mechanically. An aliquot from the resulting cell suspension was counted and the cells were plated in high glucose DMEM/F12 culture medium with 10% fetal bovine serum at a density of 1×10^5 cells/well of a Biocoat poly-D-lysine-coated 96-well plate. The day following plating was considered 1 day in vitro (DIV). Cells were maintained in a stable environment at 37° C., 95% humidity, and 5% CO2. A partial medium change was performed at 3 DIV. […]
[^3H]Dopamine uptake is used as a measure of the health and integrity of dopaminergic neurons in culture (Prochiantz et al., PNAS 76: 5387-5391, 1979). […] Briefly, cells treated with 6-OHDA in the presence and absence of 5-amino-anthra(9, 1-cd)isothiazol-6-one were assessed in the uptake assay 22 hrs after exposure to 6-OHDA. […] Radioactivity was removed and the cultures were washed 3x with ice cold PBS. […]

[3] = Brain-blood plasma distribution in vivo; set-up: species or system Sprague-Dawley rats; conditions: rat, 10 mg/kg intravenously, 2 hr post-dose
Experimental: 5-Amino-anthra(9,1-cd)isothiazol-6-one was administered intravenously (10 mg/kg) into the veins of Sprague-Dawley rats. After 2 hr, blood samples were obtained from the animals and their vascular systems were perfused with approximately 100 mL of saline to rid their brains of blood. The brains were removed from the animals, weighed, and homogenized in a 50 mL conical tube containing 10 equivalents (w/v) of methanol/saline (1:1) using a Tissue Tearer (Fischer Scientific). The homogenized material was extracted by adding 600 μL of cold methanol to 250 μL of brain homogenate vortexed for 30 sec and subjected to centrifugation for 5 min. After centrifugation, 600 μL of the resulting supernatant was transferred to a clean tube and evaporated at room temperature under reduced pressure to provide a pellet. […] The brain homogenate analysis samples, plasma analysis samples, and standard analysis samples were analyzed and compared using HPLC by injecting 100 μL of a sample onto a 5 μm C-18 Luna column (4.6 mm×150 mm, commercially available from Phenomenex of Torrance, Calif.) and eluting at 1 mL/min with a linear gradient of 30% aqueous acetonitrile containing 0.1% trifluoroacetic acid to 90% aqueous acetonitrile containing 0.1% trifluoroacetic acid over 8 minutes and holding at 90% aqueous acetonitrile containing 0.1 % trifluoroacetic acid for 3 min. with absorbance detection at 450 nm. […]

[4] = test system: patients with macular degeneration; assay: Macular degeneration clinical study (adjuvant to verteporfin photodynamic therapy); type: in vivo; conditions: about 300 mg/day for 20 weeks as adjuvant to verteporfin photodynamic therapy
Experimental: Forty patients with macular degeneration are divided into two groups. The first group receives conventional treatment for closing the leaking choroidal vessels (characteristic of this disease) by photodynamic therapy with verteporfin (see for example Ophthalmol. 117:1329-1345 (1999). The second group receives the same conventional therapy with verteporfin with 1-(5-(1H-1,2,4-triazol-5-yl)(1H-indazol-3-yl))-3-(2-piperidylethoxy)benzene at about 300 mg/day as an adjuvant for 20 weeks.
The first group, without 1-(5-(1H 1,2,4-triazol-5-yl)( 1 H-indazol-3-yl))-3-(2-piperidylethoxy)benzene, however will experience progressive reperfusion of the ablated vessels several weeks after treatment. Progressive visual loss follows which requires the photodynamic therapy to be repeated.

SMILES	solubility in aqueous media [1]	protection of dopaminergic neurons from 6-OHDA ([3H]dopamine uptake) [2]	brain-drug concentration [3]	effect on neovascular cascade / duration of photodynamic therapy effect [4]
Nc1ccc2snc3c2c1C(=O)c1ccccc1-3 [5-amino-anthra(9,1-cd)isothiazol-6-one]	limited solubility	protects rat ventral mesencephalan neurons from the toxic effects of 6-OHDA	approximately 65 nmole/g	
c1cc(OCCC2CCCCN2)cc(-c2n[nH]c3ccc(-c4ncn[nH]4)cc23)c1 (stereo not shown) [1-(5-(1H-1,2,4-triazol-5-yl)(1H-indazol-3-yl))-3-(2-piperidylethoxy)benzene]				neovascular cascade is sufficiently hindered
